Here are results for one compound from PMC4301629 (PLoS ONE, 2015).

Each structure is given as a SMILES string.

In one test the test system is HEK293/EBNA cells. The experiment in a line: IP accumulation (IP-One HTRF) in untransduced HEK-293/EBNA cells. It counts as cell-based. On the technique in general: Time-resolved FRET reads energy transfer from a long-lived donor to a nearby acceptor.
The next test deals with CCR5_CHO cells. The experiment in a line: Ca2+ transient response in CCR5_CHO negative control cells. In kind it is cell-based, Chinese hamster. The note with it: S4 Fig. The protocol:
Cells were resuspended in Hank’s balanced salt solution (Invitrogen) supplemented with 2 mM CaCl2, 10 mM HEPES pH 7.4, 2.5 mM probenecid, plus 1g/L each of glucose and bovine serum albumin (BSA), and seeded in poly-D-lysine coated 96-well black plates with transparent bottom (Costar) at a density of 50,000 cells/0.1 mL per well. Cells were then incubated for 1 h at 37°C with an additional 0.1 mL of buffer containing 4 μM fluo3-AM that was diluted from a stock solution containing 1 mM fluo3-AM dye in DMSO with 10% pluronic acid. After dye loading incubation, plates were washed twice with 100 μL of buffer and refilled with 100 μL of assay buffer. In experiments testing the effect of antagonists, 25 μL of buffer from wells of washed cells were replaced with 25 μL of vehicle or 4× antagonist solution. […] Agonist-evoked Ca^2+ mobilization responses of cell populations were monitored at room temperature simultaneously in all wells of the assay plate using the plate-imaging fluorometric reader FLIPR (MDS Analytical Technologies, Sunnyvale, CA). Measurements consisted of recording baseline fluorescence signal for 10 seconds followed by addition of the test substance and 1–2 minute readings of Ca^2+ transient responses as reported by changes in Ca^2+ dye fluorescence (excitation 488 nm, emission 510–570 nm). […]

Test [1] concerns the target T1, α1A-AR (Homo sapiens, UniProt P35348).
T1 sequence (P35348 1-466): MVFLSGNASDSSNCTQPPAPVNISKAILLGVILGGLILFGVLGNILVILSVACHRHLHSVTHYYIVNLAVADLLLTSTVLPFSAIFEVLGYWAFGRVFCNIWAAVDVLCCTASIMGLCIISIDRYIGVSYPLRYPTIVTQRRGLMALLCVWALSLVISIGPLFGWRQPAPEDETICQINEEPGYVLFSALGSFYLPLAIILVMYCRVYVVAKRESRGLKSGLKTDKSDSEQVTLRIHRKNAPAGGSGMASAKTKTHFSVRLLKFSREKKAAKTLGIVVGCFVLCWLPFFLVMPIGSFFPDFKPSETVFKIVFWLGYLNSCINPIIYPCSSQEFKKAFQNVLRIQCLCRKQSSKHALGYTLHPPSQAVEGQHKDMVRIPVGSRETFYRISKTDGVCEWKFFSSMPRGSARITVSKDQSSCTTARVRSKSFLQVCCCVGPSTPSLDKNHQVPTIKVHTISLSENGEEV
The experiment in a line: Translocation of GFP-tagged β-arrestin-1/2 in HEK293 cells expressing FLAG-α1A-AR (confocal microscopy). To be noted: HEK293, 1 μM A-61603 or 1 mM Iso. It counts as cell-based. Details: expressed in transfected cells; host or cells: HEK-293/EBNA (baculovirus transduction, NaBu induction). The protocol:
HEK293 cells were transiently co-transfected with FLAG-tagged α1A – AR and one of the following GFP-tagged proteins: Rab5 (Rab5 Q79L) variant, Rab11 (Rab11 S25N) variant, β-arrestin-1 or β-arrestin-2. Rab5 and Rab11 were kindly provided by Dr. Marino Zerial (Max Planck Institute of Molecular Cell Biology and Genetics, Dresden, Germany). […] After treatment, cells were fixed with freshly prepared 3.7% paraformaldehyde in PBS for 15 min at room temperature. Subsequently, cells were permeabilized with 0.1% Triton X-100 (Sigma-Aldrich) in PBS for 5 min, followed by nonspecific binding site blocking with 3% normal serum (Santa Cruz Biotechnology) in PBS for 1 h. Incubation with Alexa Fluor-568 conjugated anti-FLAG antibodies in blocking solution was done as directed by the manufacturer. Confocal microscopy was performed using a Zeiss LSM 510 META laser scanning microscope (Carl Zeiss, Inc., Thornwood, NY) equipped with a 60X objective, using the following laser wavelengths: excitation at 488 nm and emission at 505–530 nm; excitation at 543 nm and emission at 560–615 nm.
HEK293 cells were co-transfected with FLAG-tagged α1A – AR and GFP- tagged β-arrestin-1 (left panels) or β-arrestin-2 (right panels). […] Cells were then fixed, permeabilized, stained with Alexa Fluor-568 conjugated anti-FLAG antibodies, and analyzed employing confocal microscopy.

Test [2] deals with T1, α1A-AR. The experiment in a line: LC-MS detection of IP1, IP2 and IP3 in α1A-AR transduced HEK-293/EBNA cells. In kind it is cell-based. The arrangement: expressed in transfected cells; host or cells: HEK-293/EBNA (baculovirus transduction, NaBu induction). The note with it: Iso up to 10 mM. The protocol:
Virally transduced HEK-293/EBNA cells were resuspended in growth medium and seeded in poly-D-lysine coated 96-well black plates at a density of 100,000 cells/0.1 mL per well, Cells were allowed to attach for 2 hours at 37°C in a humidified atmosphere of 95% air and 5% CO2. After that, the medium was replaced with agonist solution in assay buffer (20 mM HEPES, 10 mM glucose, 1.8 mM CaCl2, 0.5 mM MgSO4, in HBSS 1X buffer, 50 mM LiCl) and cells were incubated at 37°C for 30 min. Stimulation was stopped by exchange of assay buffer with lysis buffer (100 μL 0.1N HCl/MeOH), and lysis proceeded for 30 min at 4°C. Cellular levels of inositol phosphates were determined using a Thermo LC-MS detection system following a published protocol. Chromatography was performed employing a BioBasic column AX (50 × 2.1 mm, Thermo). The mobile phase consisted of solvent A: 10 mM ammonium acetate, pH 6 in 30/70 acetonitrile/water, and solvent B: 1 mM ammonium acetate, pH 11 in 30/70 acetonitrile/water. A gradient solvent system was used starting with 0% solvent B, and analytes were eluted by increasing solvent B to 100% over 3 min. Each data point represents the average of triplicate determinations and each experiment was performed at least three times independently.

As for `CC(C)NCC(O)c1ccc(O)c(O)c1` (centres unmarked) [Iso, isoproterenol], the “EC50 IP” value in the test on HEK293/EBNA cells (HEK293/EBNA untransduced) is recorded as “BQL”. In addition, the IP formation entry in the test on HEK293/EBNA cells (untransduced cells, data not shown) was “not detectable”. In the test with CCR5_CHO cells, the “Ca2+ transient response” value is on record as “not observed”. The “translocation of β-arrestin-1 / β-arrestin-2” value on α1A-AR [1] was “did not cause visible β-arrestin rearrangement”. The “cellular levels of inositol phosphates IP1, IP2 and IP3” value at α1A-AR [2] is “no significant changes”.
